These results are taken from patent publication US10844049B2, “GLP-1R agonists and uses thereof” (QILU REGOR THERAPEUTICS INC., priority 2018, dated 2020).

A value given as a limit tells only on which side of the number the result lay.

For the experiment, the target named is GLP1R (Homo sapiens, UniProt P43220). In words: GLP1R cAMP HTRF assay, HEK293/GLP-1R/CRE/Luc (HEK293T cells). The class given is cell-based. To be noted: read-out: EC50. An outline of the steps:
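cAMP accumulation via HTRF after 30 min, 37 °C exposure of 1000 receptor-expressing cells/well to compound (0.5% DMSO final) in IBMX (500 μM)/0.1% BSA DPBS.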
For orientation: TR-FRET usually uses a lanthanide donor and a delayed reading to cut background.

GLP1R, sequence (P43220 24-463): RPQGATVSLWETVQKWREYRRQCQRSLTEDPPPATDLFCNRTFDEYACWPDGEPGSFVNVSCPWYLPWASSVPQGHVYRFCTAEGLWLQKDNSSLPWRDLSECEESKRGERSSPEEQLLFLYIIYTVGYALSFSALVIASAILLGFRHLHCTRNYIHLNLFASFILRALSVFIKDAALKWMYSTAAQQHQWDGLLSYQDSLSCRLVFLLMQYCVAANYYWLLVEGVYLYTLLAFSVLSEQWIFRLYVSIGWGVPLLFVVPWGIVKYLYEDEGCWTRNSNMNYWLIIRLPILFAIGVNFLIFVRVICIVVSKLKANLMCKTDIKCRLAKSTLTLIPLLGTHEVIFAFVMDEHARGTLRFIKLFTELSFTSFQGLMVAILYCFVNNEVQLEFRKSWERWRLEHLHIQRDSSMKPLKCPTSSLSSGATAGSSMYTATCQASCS

For `O=C(O)c1ccc2nc(CN3CCC(N4CCc5ccc(-c6ccc(Cl)cc6F)cc5C4=O)CC3)n(C[C@@H]3CCO3)c2c1` [Compound 54, (S)-2-((4-(7-(4-chloro-2-fluorophenyl)-1-oxo-3,4-dihydroisoquinolin-2(1H)-yl)piperidin-1-yl)methyl)-1-(oxetan-2-ylmethyl)-1 h-benzo[d]imidazole-6-carboxylic acid], the EC50 is more than 1000 nM. As for `N#Cc1ccc(COc2nccc(C3=CCN(Cc4nc5ccc(C(=O)O)cc5n4C[C@@H]4CCO4)CC3)n2)c(F)c1` [Compound 177, (S)-2-((4-(2-((4-cyano-2-fluorobenzyl)oxy)pyrimidin-4-yl)-5,6-dihydropyridin-1(2H)-yl)methyl)-1-(oxetan-2-ylmethyl)-1H-benzo[d]imidazole-6-carboxylic add], the half-maximal effective concentration (EC50) was not above 15 nM. Take `O=C(O)c1cc2c(cn1)nc(CN1CC=C(c3cccc(OCc4ccc(Cl)cc4F)n3)CC1)n2C[C@@H]1CCO1` [Compound 170, (S)-2-((G-((4-chloro-2-fluorobenzyl)oxy)-3′,6′-dihydro-[2H′-bipyridin]-1 (2′H)-yl)methyl)-1-(oxetan-2-ylmethyl)-1H-imidazo[4,5-c]pyridine-6-carboxylic acid]: the EC50 is not above 15 nM.

Take `O=C(O)c1ccc2nc(CN3CCN(c4cccc(OCc5ccc(Cl)cc5F)n4)CC3=O)n(C[C@@H]3CCO3)c2c1` [Compound 106, (S)-2-((4-(6-((4-chloro-2-fluorobenzyl)oxy)pyridin-2-yl)-2-oxopiperazin-1-yl)methyl)-1-(oxetan-2-ylmethyl)-1H-benzo[d]imidazole-6-carboxylic add]: the EC50 is not above 15 nM. To `CCOc1ccc(COc2cccc(C3=CCN(Cc4nc5ccc(C(=O)O)cc5n4C[C@@H]4CCO4)CC3)n2)cc1OC` [Compound 166, (S)-2((6-((4-ethoxy-3-methoxybenzyl)oxy)-3′,6′-dihydro-[2,4′-bipyridin]-1′(2′H)-yl)methyl)-1-(oxetan-2-ylmethyl)-1H-benzo[d]imidazole-6-carboxylic acid] belongs not above 150 nM; to `O=C(O)c1ccc2nc(CN3CCCN(c4cccc(OCc5ccc(Cl)cc5F)n4)C(=O)C3)n(C[C@@H]3CCO3)c2c1` [Compound 56, (S)-2-((4-(6-((4-chloro-2-fluorobenzyl)oxy)pyridin-2-yl)-3-oxo-1,4-diazepan-1-yl)methyl)-1-(oxetan-2-ylmethyl)-1H-benzo[d]imidazole-6-carboxylic acid], more than 1000 nM. Turning to `N#Cc1ccc(COc2cccc(C3=CCN(Cc4nc5ccc(C(=O)O)cc5n4C[C@@H]4CCO4)CC3)c2)c(F)c1` [Compound 175, (S)-2-((4-(3-((4-cyano-2-fluorobenzyl)oxy)phenyl)-3,6-dihydropyridin-1(2H)-yl)methyl)-1-(oxetan-2-ylmethyl)-1H-benzo[d]imidazole-6-carboxylic acid], the EC50 is not above 15 nM.

`O=C(O)c1ccc2nc(CN3CC=C(c4cccc(CCc5ccc(Cl)cc5F)n4)CC3)n(C[C@@H]3CCO3)c2c1` [Compound 113, (S)-2-((6-(4-chloro-2-fluorophenethyl)-3′,6′-dihydro-[2,4′-bipyridin]-1′(2′H)-yl)methyl)-1-(oxetan-2-ylmethyl)-1H-benzo[d]imidazole-6-carboxylic acid]: the EC50 is not above 150 nM. On to `CCn1cnc(Cn2c(CN3CC=C(c4cccc(OCc5ccc(C#N)cc5F)n4)CC3)nc3ccc(C(=O)O)cc32)c1` [Compound 183, 2-((6-((4-cyano-2-fluorobenzyl)oxy)-3′,6′-dihydro-[2H′-bipyridin]-1′(2′H)-yl)methyl)-1-((1-ethyl-1H-imidazol-4-yl)methyl)-1H-benzo[d]imidazole-6-carboxylic acid], for which the EC50 is not above 150 nM. As to `COc1ccc(COc2cccc(C3=CCN(Cc4nc5ccc(C(=O)O)cc5n4C[C@@H]4CCO4)CC3)n2)cn1` [Compound 119, (S)-2-((6-((6-methoxypyridin-3-yl)methoxy)-3′,6′-dihydro-[2,4′-bipyridin]-1(2′H)-yl)methyl)-1-(oxetan-2-ylmethyl)-1H-benzo[d]imidazole-6-carboxylic acid], the EC50 is not above 15 nM.

As to `N#Cc1ccc(COc2cccc(N3CCC(Cc4nc5ccc(C(=O)O)cc5n4C[C@@H]4CCO4)CC3)n2)c(F)c1` [Compound 226, (S)-2-((l-(6-((4-cyano-2-fluorobenzyl)oxy)pyridin-2-yl)piperidin-4-yl)methyl)-1-(oxetan-2-ylmethyl)-1H-benzo[d]imidazole-6-carboxylic acid], the EC50 is not above 15 nM. As for `O=c1[nH]c(-c2ccc3nc(CN4CC=C(c5cccc(OCc6ccc(Cl)cc6F)n5)CC4)n(C[C@@H]4CCO4)c3c2)no1` [Compound 62, (S)-3-(2-((4-(6-(4-chloro-2-fluorobenzyloxy)pyridin-2-yl)-5,6-dihydropyridin-1(2H)-yl)methyl)-1-(oxetan-2-ylmethyl)-1H-benzo[d]imidazol-6-yl)-1,2,4-oxadiazol-5(4H)-one], the EC50 is not above 150 nM. To `O=C(O)c1ccc2nc(CN3CCN(c4cccc(OCc5ccc(Cl)cc5F)c4)CC3)n(C[C@@H]3CCO3)c2c1` [Compound 178, (S)-2-((4-(3-((4-chloro-2-fluorobenzyl)oxy)phenyl)piperazin-1-yl)methyl)-1-(oxetan-2-ylmethyl)-1H-benzo[d]imidazole-6-carboxylic add] belongs not above 15 nM. For the compound `O=C(O)c1ccc2nc(CN3CCN(c4ccc(F)c(OCc5ccc(C#CC6CC6)cc5F)c4)CC3)n(C[C@@H]3CCO3)c2c1` [Compound 196, (S)-2-((4-(3-((4-(cyclopropylethynyl)-2-fluorobenzyl)oxy)-4-fluorophenyl)piperazin-1-yl)methyl)-1-(oxetan-2-ylmethyl)-1H-benzo[d]imidazole-6-carboxylic add], the EC50 was not above 150 nM.

Take `O=C(O)c1ccc2nc(CN3CC=C(c4cc5cn[nH]c5c(OCc5ccc(Cl)cc5F)n4)CC3)n(C[C@@H]3CCO3)c2c1` [Compound 103, (S)-2-((4-(7-((4-chloro-2-fluorobenzyl)oxy)-1H-pyrazolo[3H-c]pyridin-5-yl)-3,6-dihydropyridin-1(2H)-yl)methyl)-1-(oxetan-2-ylmethyl)-1H-benzo[d]imidazole-6-carboxylic add]: the EC50 was not above 150 nM.

As for `O=C(O)c1cc2c(cc1F)nc(CN1CC=C(c3cccc(OCc4ccc(Cl)cc4F)n3)CC1)n2C[C@@H]1CCO1` [Compound 172, (S)-2-((6-((4-chloro-2-fluorobenzyl)oxy)-3′,6′-dihydro-[2H′-bipyridin]-1′(2′H)-yl)methyl)-5-fluoro-1-(oxetan-2-ylmethyl)-1H-benzo[d]imidazole-6-carboxylic acid], the concentration for a half-maximal effect (EC50) was not above 15 nM. `O=C(O)c1ccc2nc(CN3CCN(c4ccc5c(n4)N(Cc4ccc(Cl)cc4F)CCC5)CC3)n(C[C@@H]3CCO3)c2c1` [Compound 3, (S)-2-((4-(8-(4-chloro-2-fluorobenzyl)-5,6,7,8-tetrahydro-1,8-naphthyridin-2yl)piperazin-1-yl)methyl)-1-(oxetan-2-ylmethyl)-1 h-benzo[d]imidazole-6-carboxylic acid]: the EC50 was more than 1000 nM. The result for `O=C(O)c1ccc2nc(CN3CCN(c4nccc(OCc5ccc(Cl)cc5F)n4)CC3)n(C[C@@H]3CCO3)c2c1` [Compound 181, (S)-2-((4-(4-((4-chloro-2-fluorobenzyl)oxy)pyrimidin-2-yl)piperazin-1-yl)methyl)-1-(oxetan-2-ylmethyl)-1H-benzo[d]imidazole-6-carboxylic acid] reads not above 15 nM.

In general, EC50 refers to the midpoint of the concentration-response curve.
